We go through four compounds from patent publication US4481139A, “Peptide antagonists of substance P” (Board of Regents, The University of Texas System, priority 1983, dated 1984).

“And” between values parts separate entries of the source, which are not always exact repeats. Equal entries are not always repeated. Non-standard residues stand in square brackets, D forms with d. Residues, ends and D or L forms follow the SMILES beside them. pGlu = O=C1CC[C@@H](C(=O)O)N1 Some results are limits rather than exact numbers.

For series [1] the following is noted: SP = 1; cited from earlier work.
The subject of series [2] is terminal portion of the guinea pig ileum. The series is described as follows: Antagonistic activity against substance P on the terminal portion of the guinea pig ileum. In kind it is cell-based. To be noted: analog at 10^-4 (concentration unit not given). Here is the method: The antagonistic activities of the analogs were evaluated using the terminal portion of the guinea pig ileum, as described by Yamaguchi et al. [Acta Chem. Scand. B33, 63 (1979)]. The biological assay data are in Table IV.
The sequence of substance P (SP) is expressed in the top of Table IV. The antagonistic activity is defined as the fold-increase in the concentration of SP in the presence of the analog to give 50% of the maximal response which is elicited by SP alone. The sequences of the analogs which were designed and synthesized are in Table IV. The eleven amino acids of SP are spaced across the top line to facilitate visual comparison of the amino acids in SP with those in the analogs. For example, analog I is also spaced across the page to show the sequence relationship to SP. On this basis, analog I is H-Arg^1,Pro^2,Lys^3,Pro^4,D-Phe^5,Gln^6,D-Trp^7,Phe^8 D-Trp^9,Leu^10,Leu^11 -NH2, but on the basis of conventional peptide nomenclature, analog I is expressed as [D-Phe^5,D-Trp^7,D-Trp^9,Leu^11 ]-SP5-11.

Series [3] can be described thus: Solubility in 50% ethanol (footnote to Table IV). In kind it is physicochemical.

Take “Glp-Gln-Phe-Phe-Gly-Leu-Met-NH2 ([pGlu]QFFGLM-NH2; SMILES CSCC[C@H](NC(=O)[C@H](CC(C)C)NC(=O)CNC(=O)[C@H](Cc1ccccc1)NC(=O)[C@H](Cc1ccccc1)NC(=O)[C@H](CCC(N)=O)NC(=O)[C@@H]1CCC(=O)N1)C(N)=O) [truncated heptapeptide analog of SP from Yanaihara et al]”: the “Relative activity in comparison with SP as 1” value in series [1] was 1.7.

For `CC(C)C[C@H](NC(=O)[C@H](CC(C)C)NC(=O)[C@@H](Cc1c[nH]c2ccccc12)NC(=O)[C@H](Cc1ccccc1)NC(=O)[C@@H](Cc1c[nH]c2ccccc12)NC(=O)[C@H](CCC(N)=O)NC(=O)[C@@H]1CCC(=O)N1)C(N)=O` [Analog V, [Glp^5,D-Trp^7,D-Trp^9,Leu^11]--SP5-11] ([pGlu]Q[dW]F[dW]LL-NH2), in series [2], the “Fold increase in conc. of SP in the presence of the analog to give 50% of the maximal response elicited by SP alone” value is 17 fold.

“[D-Phe^5,D-Trp^7,D-Trp^9,Leu^11 ]-SP5-11 [Analog I]”: in series [2], the “Fold increase in conc. of SP in the presence of the analog to give 50% of the maximal response elicited by SP alone” value was > 200 fold and 200 fold. In addition, the Solubility result in series [3] was “difficulty soluble in 50% ethanol”.

For `CC(C)C[C@H](NC(=O)[C@@H](Cc1c[nH]c2ccccc12)NC(=O)[C@H](Cc1ccccc1)NC(=O)[C@@H](Cc1c[nH]c2ccccc12)NC(=O)[C@H](CCC(N)=O)NC(=O)[C@@H]1CCC(=O)N1)C(=O)N[C@H](C(N)=O)[C@@H](C)O` [Analog III, [Glp^5,D-Trp^7,D-Trp^9,Thr^11]--SP5-11] ([pGlu]Q[dW]F[dW]LT-NH2), the “Fold increase in conc. of SP in the presence of the analog to give 50% of the maximal response elicited by SP alone” value in series [2] is 2 fold.
